Data: paper PMC9030622, “Investigation of an Allosteric Deoxyhypusine Synthase Inhibitor in P. falciparum” (Molecules, 2022)

Experiments:
[1] = biological target: T1, P. falciparum deoxyhypusine synthase (DHS) (Plasmodium falciparum, UniProt Q9GSW0); test: deoxyhypusine formation assay with purified recombinant PfDHS, GC/MS readout; partial (max […]) inhibition; type: biochemical
T1 construct: recombinant, truncated P. falciparum DHS, N-terminally histidine-tagged
T1 sequence (Q9GSW0 1-496): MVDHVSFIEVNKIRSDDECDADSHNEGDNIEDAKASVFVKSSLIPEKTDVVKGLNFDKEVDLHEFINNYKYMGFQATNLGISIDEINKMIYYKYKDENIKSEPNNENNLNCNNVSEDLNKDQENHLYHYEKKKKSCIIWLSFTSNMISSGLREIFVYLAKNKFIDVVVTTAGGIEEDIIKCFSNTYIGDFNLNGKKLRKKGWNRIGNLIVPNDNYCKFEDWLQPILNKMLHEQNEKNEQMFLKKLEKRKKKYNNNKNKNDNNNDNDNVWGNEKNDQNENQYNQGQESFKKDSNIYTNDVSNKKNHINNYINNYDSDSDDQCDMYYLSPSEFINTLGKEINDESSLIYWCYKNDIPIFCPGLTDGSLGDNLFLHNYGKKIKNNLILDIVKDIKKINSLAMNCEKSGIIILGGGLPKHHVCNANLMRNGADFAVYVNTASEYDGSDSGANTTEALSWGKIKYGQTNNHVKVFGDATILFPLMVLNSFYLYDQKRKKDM

[2] = biological target: T1, P. falciparum deoxyhypusine synthase (DHS); test: deoxyhypusine formation assay with purified recombinant PfDHS, GC/MS readout; type: biochemical

| SMILES | IC50 [1] [nM] | IC50 [2] [nM] |
| --- | --- | --- |
| O=C(Nc1cccc2[nH]ccc12)c1cc2ccc(Br)cc2s1 [6-bromo-N-(1H-indol-4yl)-1-benzothiophene-2-carboxamide] | 340 |  |
| O=C(O)c1cc(O)c2cccc(O)c2n1 [C, 4,8-Dihydroxyquinoline-2-carboxylic acid] |  | 112 |
